Experiment [1] deals with T1, CDK4 (Homo sapiens, UniProt P11802). As to the kind of experiment: CDK4 inhibition by Caliper assay. Type of experiment: biochemical. The conditions noted are these: compound 100 nM. How it is done:
(§1) The experimental steps were as follows:
(§2) Preparation of 1×kinase reaction buffer (50 mM HEPES, PH 7.5; 0.0015% Brij-35) and kinase reaction termination solution (100 mM HEPES, PH 7.5; 0.0015% Brij-35; 0.2% Coating Reagent; 50 mM EDTA) preparation of experimental samples: 100 μL of 5 μM sample solution (dissolved in 100% DMSO) was added to a 96-well plate to obtain a 50×sample solution. As controls, two wells containing only 100 μL of 100% DMSO were set on the same plate. One was served as a control without samples and the other was served as a control without enzymes. 10 μL of sample and 90 μL of 1×kinase reaction buffer were added to a 96-well plate as a transfer plate. The transfer plate was shaken for 10 minutes.
(§3) Preparation of the test plate: taking 5 μL of each of the prepared samples in the 96-well transfer plate into a 384-well plate. Kinase reaction: to 5 μL of 5×compound solution (dissolved in DMSO, diluted 10 times with water) was added 10 μL of 2.5×CDK4/6 kinase solution (kinase was diluted with 1×kinase reaction buffer), which was incubated at room temperature for 10 min, and then 10 μL of 2.5×substrate peptide solution (FAM-labeled peptide and ATP were diluted with 1×kinase reaction buffer) was added. Termination of the kinase reaction: 25 μL of kinase reaction termination solution was added after being reacted at 28° C. for a period of time. The fluorescence (F) was tested on a Caliper and data was collected. The inhibition rate of kinase activity was calculated: the percent inhibition rate of kinase activity=(FDMSO control−Fsample)/(FDMSO control−Fnegative control)×100%, with DMSO as the solution control, and no kinase as the negative control.
Target sequence in this assay (P11802 whole entry, species assumed): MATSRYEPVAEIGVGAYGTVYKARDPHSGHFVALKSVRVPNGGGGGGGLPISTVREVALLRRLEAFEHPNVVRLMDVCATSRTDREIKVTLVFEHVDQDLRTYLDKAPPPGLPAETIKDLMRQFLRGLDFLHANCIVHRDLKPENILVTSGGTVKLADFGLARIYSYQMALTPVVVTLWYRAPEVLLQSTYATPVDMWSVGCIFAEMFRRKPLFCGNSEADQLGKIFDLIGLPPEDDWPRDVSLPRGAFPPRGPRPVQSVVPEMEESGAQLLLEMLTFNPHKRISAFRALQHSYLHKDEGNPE
Target sequence in this assay (P30281 whole entry partner, species assumed): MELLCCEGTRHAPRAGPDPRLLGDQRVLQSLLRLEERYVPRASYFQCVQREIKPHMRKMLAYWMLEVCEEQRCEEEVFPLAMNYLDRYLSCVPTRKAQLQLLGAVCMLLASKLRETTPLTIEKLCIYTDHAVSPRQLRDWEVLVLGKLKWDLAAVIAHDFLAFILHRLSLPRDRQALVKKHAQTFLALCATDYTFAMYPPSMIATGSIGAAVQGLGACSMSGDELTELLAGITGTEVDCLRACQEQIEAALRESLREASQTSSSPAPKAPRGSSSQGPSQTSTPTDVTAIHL

For experiment [2], the target named is T2, CDK6 (Homo sapiens, UniProt Q00534). As to the kind of experiment: CDK6 inhibition by Caliper assay. It counts as biochemical. The note with it: compound 100 nM. How it is done: as §1, §2, §3
Target sequence in this assay (Q00534 whole entry, species assumed): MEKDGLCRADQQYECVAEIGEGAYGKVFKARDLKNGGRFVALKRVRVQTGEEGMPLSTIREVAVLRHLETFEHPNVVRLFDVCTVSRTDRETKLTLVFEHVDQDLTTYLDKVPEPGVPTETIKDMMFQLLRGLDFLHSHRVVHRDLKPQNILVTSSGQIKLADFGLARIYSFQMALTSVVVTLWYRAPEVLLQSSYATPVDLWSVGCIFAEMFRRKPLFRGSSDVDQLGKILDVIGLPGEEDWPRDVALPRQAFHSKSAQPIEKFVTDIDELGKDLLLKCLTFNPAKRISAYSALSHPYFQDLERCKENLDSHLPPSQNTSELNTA
Target sequence in this assay (P30281 whole entry partner, species assumed): as the sequence (P30281 whole entry partner, species assumed) above
The target in experiment [3] is T1, CDK4. As to the kind of experiment: CDK4 protein degradation activity by Western blot in MCF-7 cells. Type of experiment: cell-based. Also noted: host or cells: MCF-7. The conditions noted are these: MCF7, compound 1 μM, 24 hours. How it is done: (§4) Cell lines: MCF-7 cell lines (human breast cancer cells, available from ATCC) were cultured in MEM medium containing 10% calf serum in a 37° C., 5% CO2, and saturated humidity incubator. DMSO control group and compound intervention group (1 μM) were set. Cells were collected after the treatment for 24 hours, then 100 μL of pre-chilled cell lysate was added and cells were lysed on ice for 30 minutes, total cell protein was extracted, and protein concentration was determined and quantified by bicinchoninic acid method. After routine gelatinization, loading, electrophoresis, then transferring to membrane and blocking, rabbit anti-human CDK4 (1:450) and rabbit anti-human CDK6 (1:150) were added and incubated at 4° C. overnight. The mixture was rinsed and then secondary antibody IgG (1:5000) was added. After the rinsing it was developed by the ECL developing solution, the Bio-Rad gel imaging system was used for scanning and imaging, and the computer software was used for analysis. […] (GAPDH) was used as an internal control. Image J software was used to analyze the gray scale of each band to calculate the degradation rate of the compound to degrade CDK4/6 protein.
(A western blot detects proteins with antibodies after separation by electrophoresis.)
Target sequence in this assay (P11802 whole entry): as the sequence (P11802 whole entry, species assumed) above

Experiment [4] concerns the target T2, CDK6. As to the kind of experiment: CDK6 protein degradation activity by Western blot in MCF-7 cells. Type of experiment: cell-based. Also noted: host or cells: MCF-7. The note with it: MCF7, compound 1 μM, 24 hours. Here is the method: as §4
Target sequence in this assay (Q00534 whole entry): as the sequence (Q00534 whole entry, species assumed) above
Experiment [5] deals with T47D cells. In words: Inhibition of proliferation of T47D cells by CCK8 assay. It counts as cell-based. The conditions noted are these: Homo sapiens, CCK8, 72 hours. How it is done: The inhibitory effect of the compound on the proliferation of T47D cells (commercially available from ATCC) was determined by the CCK8 method in vitro. The experimental steps were as follows: T47D cells were cultured in 1640 medium of 10% calf serum, seeded in a 96-well plate with 1.5×10^5/ml, and placed in a 37° C., 5% CO2 incubator. Each compound or the positive drug (Ribociclib) was dissolved in dimethyl sulfoxide (DMSO) to obtain a solution with a concentration of 100 mM, and then diluted to the desired concentration with the culture medium. The solutions were then added to the above 96-well plates. Each concentration has 3 wells with 50 μl per well. As a control, DMSO was diluted in the corresponding gradient and then added to the plate. After the 96-well plate was cultured in a 37° C., 5% CO2 cell incubator for 72 hours, 110 μl of CCK8 solution in 9% was added to each well, and it was cultured in the incubator for another 4 hours. The light absorption value at 450 nm was measured. The relative survival rate of the cells after the compound treatment was calculated based on the light absorption value. The IC50 of the compound against T47D cells was calculated by software.

Experiment [6] concerns MCF-7 cells. As to the kind of experiment: Inhibition of proliferation of MCF-7 cells by MTT assay. The conditions noted are these: Homo sapiens, MCF7, 48 hours. Type of experiment: cell-based. How it is done:
The inhibitory effect of the compound on the proliferation of MCF-7 cells (commercially available from ATCC) was determined by the MTT method in vitro. […] Each compound was dissolved in dimethyl sulfoxide (DMSO) to obtain a solution with a concentration of 10 mM, and then diluted to the desired concentration with a phosphate buffer solution. The solution was added to the above 96-well plate. Each concentration has 2 wells with 10 μl per well. Each concentration was tested in duplicate. As a control, DMSO was diluted in the corresponding gradient and then added to the plate. After the 96-well plate was cultured in a 37° C., 5% CO2 cell incubator for 48 hours, 20 μl of MTT solution in 5 mg/ml was added to each well, and it was cultured in the incubator for another 3 to 4 hours. 100 μl of lysate was added to each well and the cells were further incubated overnight in the incubator to fully dissolve the formazan crystals generated. The light absorption value at 492 nm was measured. The relative survival rate of the cells after the compound treatment was calculated based on the light absorption value. The IC50 of the compound against MCF-7 cells was calculated by software.

Where only a bound is given, the exact number is not on record here.

In general, inhibition refers to the relative decrease from the control value, in per cent. The low end stands for a weak effect, the high end for a strong effect. Usually Dmax stands for the greatest extent of degradation seen. Consider `CN(C)C(=O)c1cc2cnc(Nc3ccc(N4CCN(CCOCCOCCNc5cccc6c5C(=O)N(C5CCC(=O)NC5=O)C6=O)CC4)cn3)nc2n1C1CCCC1` (stereo not drawn) [Compound 17], for which the values for the inhibition at 0.1 µM in experiment [1] and in experiment [2] were 82% and 25%, respectively. Further, the maximal degradation (Dmax) at 1 µM in experiment [3] and in experiment [4] was 50 to 90% throughout.
Turning to `CC(=O)c1c(C)c2cnc(Nc3ccc(N4CCN(CCCCCNC(=O)COc5cccc6c5C(=O)N(C5CCC(=O)NC5=O)C6=O)CC4)cn3)nc2n(C2CCCC2)c1=O` (stereo not drawn) [Compound 38], the Dmax at 1 µM in experiment [3] and in experiment [4] was above 90% in each case.
The IC50 is the concentration that inhibits the measured activity by half. A lower IC50 goes with greater potency. In turn, `CN(C)C(=O)c1cc2cnc(Nc3ccc(N4CCNCC4)cn3)nc2n1C1CCCC1` [Ribociclib, reference compound] returned an IC50 in experiment [5] of 68700 nM. In other words, the double-digit micromolar range.
For `CC(=O)c1c(C)c2cnc(Nc3ccc(N4CCN(CCCOCCNc5cccc6c5C(=O)N(C5CCC(=O)NC5=O)C6=O)CC4)cn3)nc2n(C2CCCC2)c1=O` (stereo not drawn) [Compound 27], the Dmax at 1 µM in experiment [3] and in experiment [4] was 50 to 90% each time.
With `CC(=O)c1c(C)c2cnc(Nc3ccc(N4CCN(CCOCCOCCNc5cccc6c5C(=O)N(C5CCC(=O)NC5=O)C6=O)CC4)cn3)nc2n(C2CCCC2)c1=O` (stereo not drawn) [Compound 15], the inhibition at 0.1 µM in experiment [1] stood at 91%; in experiment [2] it was 69%. In experiment [6], this compound came in with an IC50 of 220 nM.
As for `CN(C)C(=O)c1cc2cnc(Nc3ccc(N4CCN(CCOCCOCCOCCNc5cccc6c5C(=O)N(C5CCC(=O)NC5=O)C6=O)CC4)cn3)nc2n1C1CCCC1` (stereo not drawn) [Compound 18], the results for the inhibition at 0.1 µM in experiment [1] and in experiment [2] were 80% and 29%, respectively. Also, inhibition in experiment [5] was half-maximal at 8100 nM (IC50). Moreover, the Dmax at 1 µM in experiment [3] and in experiment [4] was above 90% throughout.
As for `CC(=O)c1c(C)c2cnc(Nc3ccc(N4CCN(CCCCCCOc5cccc6c5C(=O)N(C5CCC(=O)NC5=O)C6=O)CC4)cn3)nc2n(C2CCCC2)c1=O` (stereo not drawn) [Compound 23], the Dmax at 1 µM in experiment [3] and in experiment [4] was 50 to 90% throughout.
For `CC(=O)c1c(C)c2cnc(Nc3ccc(N4CCN(CCOCCOCCOCCOc5cccc6c5C(=O)N(C5CCC(=O)NC5=O)C6=O)CC4)cn3)nc2n(C2CCCC2)c1=O` (stereo not drawn) [Compound 21], the inhibition at 0.1 µM in experiment [1] came out at 93%; in experiment [2], 97%. Moreover, the IC50 in experiment [6] is 160 nM. In addition, the greatest degradation seen (Dmax) at 1 µM in experiment [3] and in experiment [4] was 50 to 90% throughout.
For the compound `CC(=O)c1c(C)c2cnc(Nc3ccc(N4CCN(CCCCCCNc5cccc6c5C(=O)N(C5CCC(=O)NC5=O)C6=O)CC4)cn3)nc2n(C2CCCC2)c1=O` (stereo not drawn) [Compound 26], the greatest degradation seen (Dmax) at 1 µM in experiment [3] and in experiment [4] was 50 to 90% each time.
Take `CC(=O)c1c(C)c2cnc(Nc3ccc(N4CCN(C(=O)COCCOCCNc5cccc6c5C(=O)N(C5CCC(=O)NC5=O)C6=O)CC4)cn3)nc2n(C2CCCC2)c1=O` (stereo not drawn) [Compound 11]: the inhibition at 0.1 µM turned out to be 93% in experiment [1] and 79% in experiment [2].
For the compound `CN(C)C(=O)c1cc2cnc(Nc3ccc(N4CCN(CCCNC(=O)COc5cccc6c5C(=O)N(C5CCC(=O)NC5=O)C6=O)CC4)cn3)nc2n1C1CCCC1` (stereo not drawn) [Compound 46], the results for the Dmax at 1 µM in experiment [3] and in experiment [4] were above 90% and 50 to 90%, respectively.
For the compound `CN(C)C(=O)c1cc2cnc(Nc3ccc(N4CCN(CCOCCOCCOc5cccc6c5C(=O)N(C5CCC(=O)NC5=O)C6=O)CC4)cn3)nc2n1C1CCCC1` (stereo not drawn) [Compound 19], the inhibition at 0.1 µM in experiment [1] came out at 80%; in experiment [2], 43%. Moreover, the Dmax at 1 µM in experiment [3] was above 90%; in experiment [4] it was 50 to 90%.
`CN(C)C(=O)c1cc2cnc(Nc3ccc(N4CCN(CCCCCNC(=O)COc5cccc6c5C(=O)N(C5CCC(=O)NC5=O)C6=O)CC4)cn3)nc2n1C1CCCC1` (stereo not drawn) [Compound 47]: the maximal degradation (Dmax) at 1 µM in experiment [3] is above 90%; in experiment [4] it was 50 to 90%.
For `CN(C)C(=O)c1cc2cnc(Nc3ccc(N4CCN(CCOCCOCCOCCOc5cccc6c5C(=O)N(C5CCC(=O)NC5=O)C6=O)CC4)cn3)nc2n1C1CCCC1` (stereo not drawn) [Compound 20], in that order: 50 to 90% and 50 to 90%.
Consider `CC(=O)c1c(C)c2cnc(Nc3ccc(N4CCN(CCOCCOCCOc5cccc6c5C(=O)N(C5CCC(=O)NC5=O)C6=O)CC4)cn3)nc2n(C2CCCC2)c1=O` (stereo not drawn) [Compound 8], for which the inhibition at 0.1 µM amounted to 82% in experiment [1] and 84% in experiment [2]. This compound also displayed an IC50 in experiment [6] of 200 nM. Further, the Dmax at 1 µM in experiment [3] and in experiment [4] was 50 to 90% each time.
Turning to `CC(=O)c1c(C)c2cnc(Nc3ccc(N4CCN(CCOCCOCCOCCNc5cccc6c5C(=O)N(C5CCC(=O)NC5=O)C6=O)CC4)cn3)nc2n(C2CCCC2)c1=O` (stereo not drawn) [Compound 16], the inhibition at 0.1 µM in experiment [1] was determined as 97%; in experiment [2] it was 68%. In addition, half-maximal inhibition in experiment [6] (IC50) required 300 nM. For the same compound, the maximal degradation (Dmax) at 1 µM in experiment [3] and in experiment [4] was 50 to 90% throughout.
Take `CC(=O)c1c(C)c2cnc(Nc3ccc(N4CCN(CCCCOc5cccc6c5C(=O)N(C5CCC(=O)NC5=O)C6=O)CC4)cn3)nc2n(C2CCCC2)c1=O` (stereo not drawn) [Compound 24]: the inhibition at 0.1 µM was 96% in experiment [1] and 91% in experiment [2]. The greatest degradation seen (Dmax) at 1 µM in experiment [3] and in experiment [4] was above 90% throughout.
For `CC(=O)c1c(C)c2cnc(Nc3ccc(N4CCN(CCCCCCCCOc5cccc6c5C(=O)N(C5CCC(=O)NC5=O)C6=O)CC4)cn3)nc2n(C2CCCC2)c1=O` (stereo not drawn) [Compound 25], the Dmax at 1 µM in experiment [3] and in experiment [4] was 50 to 90% in each case.
As for `CC(=O)c1c(C)c2cnc(Nc3ccc(N4CCN(CCOCCCNc5cccc6c5C(=O)N(C5CCC(=O)NC5=O)C6=O)CC4)cn3)nc2n(C2CCCC2)c1=O` (stereo not drawn) [Compound 28], the maximal degradation (Dmax) at 1 µM in experiment [3] and in experiment [4] was 50 to 90% in each case.
In the case of `CC(=O)c1c(C)c2cnc(Nc3ccc(N4CCN(S(=O)(=O)CCCCCOc5cccc6c5C(=O)N(C5CCC(=O)NC5=O)C6=O)CC4)cn3)nc2n(C2CCCC2)c1=O` (stereo not drawn) [Compound 14], the inhibition at 0.1 µM in experiment [1] is 92%; in experiment [2], 85%.
Regarding `CN(C)C(=O)c1cc2cnc(Nc3ccc(N4CCN(CCOCCNC(=O)COc5cccc6c5C(=O)N(C5CCC(=O)NC5=O)C6=O)CC4)cn3)nc2n1C1CCCC1` (stereo not drawn) [Compound 48], the Dmax at 1 µM in experiment [3] was above 90%; in experiment [4], 50 to 90%.
